# Values of other authors, collected in patent US20060204588A1, “Formulations of a nanoparticulate finasteride, dutasteride or tamsulosin hydrochloride, and mixtures thereof” (Elan Pharma International Limited, priority 2005, published 2006).
SMILES,Solubility in ethanol (in words) (ethanol),Solubility in ether (ether),Solubility in glacial acetic acid (glacial acetic acid),Solubility in methanol (in words) (methanol),Solubility in water,Solubility in alcohol (alcohol),Solubility in chloroform (chloroform),Solubility in lower alcohol solvents (lower alcohol solvents)
"CCOc1ccccc1OCCNC(C)Cc1ccc(OC)c(S(N)(=O)=O)c1.Cl (single isomer, unassigned; (-)) [Tamsulosin hydrochloride]",slightly soluble,practically insoluble,slightly soluble,sparingly soluble,sparingly soluble,,,
"C[C@]12C=CC(=O)N[C@@H]1CC[C@@H]1[C@@H]2CC[C@]2(C)[C@@H](C(=O)Nc3cc(C(F)(F)F)ccc3C(F)(F)F)CC[C@@H]12 [Dutasteride, (5α, 17β)-(2,5 bis-(trifluoromethyl)phenyl)-3-oxo-4-azaandrost-1-ene-17-carboxamide]",,,,,insoluble,,,
"CC(C)(C)NC(=O)[C@H]1CC[C@H]2[C@@H]3CC[C@H]4NC(=O)C=C[C@]4(C)[C@H]3CC[C@]12C [Finasteride, (5alpha,17beta)-N-(1,1-dimethylethyl)-3-oxo-4-azaandrost-1-ene-17-carboxamide]",,,,,practically insoluble,soluble,freely soluble,freely soluble
